In the kinase profiling compilation of Christmann-Franck et al. (2016):

Assays:
Test in all cases: radiometric filter-binding kinase assay, Kinase HotSpot
Conditions in all cases: compound 0.5 µM; ATP 10 µM
NEK2 (human) = NEK2 (human) (UniProt P51955)
STK39 (human) = STK39 (human) (UniProt Q9UEW8)
MAP3K5 (human) = MAP3K5 (human) (UniProt Q99683)
PRKX (human) = PRKX (human) (UniProt P51817)
CDK1 CCNB1 (human) = CDK1 CCNB1 (human) (UniProt P06493+P14635)
FRK (human) = FRK (human) (UniProt P42685)
MAP2K1 (human) = MAP2K1 (human) (UniProt Q02750)
SRPK3 (human) = SRPK3 (human) (UniProt Q9UPE1)
BRSK1 (human) = BRSK1 (human) (UniProt Q8TDC3)
CHEK2 (human) = CHEK2 (human) (UniProt O96017)
STK33 (human) = STK33 (human) (UniProt Q9BYT3)
BMX (human) = BMX (human) (UniProt P51813)
PRKCB2 (human) = PRKCB2 (human) (UniProt P05771)
DYRK2 (human) = DYRK2 (human) (UniProt Q92630)
ADRBK1 (human) = ADRBK1 (human) (UniProt P25098)
Sequence of ADRBK1 (human) (P25098 whole entry, looked up): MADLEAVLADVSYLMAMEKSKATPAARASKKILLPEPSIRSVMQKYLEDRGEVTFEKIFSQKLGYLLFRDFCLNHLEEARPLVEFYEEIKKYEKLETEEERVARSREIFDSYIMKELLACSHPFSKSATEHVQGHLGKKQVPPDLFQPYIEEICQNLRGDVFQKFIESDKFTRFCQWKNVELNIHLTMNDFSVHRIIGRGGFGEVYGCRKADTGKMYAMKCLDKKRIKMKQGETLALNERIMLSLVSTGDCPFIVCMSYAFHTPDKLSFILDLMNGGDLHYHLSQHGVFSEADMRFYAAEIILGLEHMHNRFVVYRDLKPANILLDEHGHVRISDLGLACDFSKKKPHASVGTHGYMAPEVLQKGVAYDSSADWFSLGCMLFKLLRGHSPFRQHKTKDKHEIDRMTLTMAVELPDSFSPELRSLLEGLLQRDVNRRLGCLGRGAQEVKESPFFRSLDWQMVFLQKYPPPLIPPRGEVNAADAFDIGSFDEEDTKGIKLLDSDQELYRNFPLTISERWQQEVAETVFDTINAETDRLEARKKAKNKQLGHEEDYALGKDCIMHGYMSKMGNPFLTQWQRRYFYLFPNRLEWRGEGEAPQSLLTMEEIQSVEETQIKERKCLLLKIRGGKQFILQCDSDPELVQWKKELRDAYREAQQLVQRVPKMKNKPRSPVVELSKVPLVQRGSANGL

VRK1 (human) = VRK1 (human) (UniProt Q99986)
PHKG1 (human) = PHKG1 (human) (UniProt Q16816)
EPHA7 (human) = EPHA7 (human) (UniProt Q15375)
LTK (human) = LTK (human) (UniProt P29376)
AXL (human) = AXL (human) (UniProt P30530)
BTK (human) = BTK (human) (UniProt Q06187)
CSNK1G2 (human) = CSNK1G2 (human) (UniProt P78368)
CAMKK1 (human) = CAMKK1 (human) (UniProt Q8N5S9)
MYO3B (human) = MYO3B (human) (UniProt Q8WXR4)
SRPK2 (human) = SRPK2 (human) (UniProt P78362)
Sequence of SRPK2 (human) (P78362 whole entry, looked up): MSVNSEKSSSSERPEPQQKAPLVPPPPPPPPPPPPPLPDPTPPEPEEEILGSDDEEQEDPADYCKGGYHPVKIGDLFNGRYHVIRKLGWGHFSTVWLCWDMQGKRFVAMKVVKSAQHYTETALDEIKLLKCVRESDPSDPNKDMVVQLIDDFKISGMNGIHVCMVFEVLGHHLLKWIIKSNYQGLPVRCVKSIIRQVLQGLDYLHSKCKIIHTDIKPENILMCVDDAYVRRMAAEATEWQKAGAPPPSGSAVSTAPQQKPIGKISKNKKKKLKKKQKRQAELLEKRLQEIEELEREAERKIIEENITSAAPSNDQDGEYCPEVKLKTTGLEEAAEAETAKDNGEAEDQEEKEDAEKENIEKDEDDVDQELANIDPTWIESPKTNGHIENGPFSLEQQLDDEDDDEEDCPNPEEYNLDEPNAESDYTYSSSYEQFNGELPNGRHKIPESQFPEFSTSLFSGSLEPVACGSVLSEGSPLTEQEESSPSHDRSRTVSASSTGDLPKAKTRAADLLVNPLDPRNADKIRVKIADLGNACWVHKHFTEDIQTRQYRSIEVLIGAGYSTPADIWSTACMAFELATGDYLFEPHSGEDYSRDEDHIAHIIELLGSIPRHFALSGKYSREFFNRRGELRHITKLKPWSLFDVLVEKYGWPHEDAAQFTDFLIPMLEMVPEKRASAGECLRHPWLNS

INSRR (human) = INSRR (human) (UniProt P14616)
DAPK3 (human) = DAPK3 (human) (UniProt O43293)
DYRK4 (human) = DYRK4 (human) (UniProt Q9NR20)
Sequence of DYRK4 (human) (Q9NR20 whole entry, looked up): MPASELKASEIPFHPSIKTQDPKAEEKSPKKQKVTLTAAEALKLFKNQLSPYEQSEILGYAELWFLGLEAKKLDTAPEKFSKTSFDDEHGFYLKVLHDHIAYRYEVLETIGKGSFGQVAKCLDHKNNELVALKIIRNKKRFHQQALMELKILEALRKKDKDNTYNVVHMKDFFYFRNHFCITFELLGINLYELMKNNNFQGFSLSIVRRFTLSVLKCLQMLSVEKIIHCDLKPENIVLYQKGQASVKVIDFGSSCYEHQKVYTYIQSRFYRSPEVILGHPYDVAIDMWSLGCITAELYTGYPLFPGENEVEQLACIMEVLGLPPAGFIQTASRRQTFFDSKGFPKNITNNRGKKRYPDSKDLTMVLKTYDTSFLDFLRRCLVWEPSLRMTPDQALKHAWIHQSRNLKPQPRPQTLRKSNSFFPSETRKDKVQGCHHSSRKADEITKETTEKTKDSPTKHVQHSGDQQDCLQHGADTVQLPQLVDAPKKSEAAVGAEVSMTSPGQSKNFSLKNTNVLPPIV

PRKACG (human) = PRKACG (human) (UniProt P22612)
PRKCD (human) = PRKCD (human) (UniProt Q05655)
TEK (human) = TEK (human) (UniProt Q02763)
MAP3K14 (human) = MAP3K14 (human) (UniProt Q99558)
DYRK3 (human) = DYRK3 (human) (UniProt O43781)
Sequence of DYRK3 (human) (O43781 whole entry, looked up): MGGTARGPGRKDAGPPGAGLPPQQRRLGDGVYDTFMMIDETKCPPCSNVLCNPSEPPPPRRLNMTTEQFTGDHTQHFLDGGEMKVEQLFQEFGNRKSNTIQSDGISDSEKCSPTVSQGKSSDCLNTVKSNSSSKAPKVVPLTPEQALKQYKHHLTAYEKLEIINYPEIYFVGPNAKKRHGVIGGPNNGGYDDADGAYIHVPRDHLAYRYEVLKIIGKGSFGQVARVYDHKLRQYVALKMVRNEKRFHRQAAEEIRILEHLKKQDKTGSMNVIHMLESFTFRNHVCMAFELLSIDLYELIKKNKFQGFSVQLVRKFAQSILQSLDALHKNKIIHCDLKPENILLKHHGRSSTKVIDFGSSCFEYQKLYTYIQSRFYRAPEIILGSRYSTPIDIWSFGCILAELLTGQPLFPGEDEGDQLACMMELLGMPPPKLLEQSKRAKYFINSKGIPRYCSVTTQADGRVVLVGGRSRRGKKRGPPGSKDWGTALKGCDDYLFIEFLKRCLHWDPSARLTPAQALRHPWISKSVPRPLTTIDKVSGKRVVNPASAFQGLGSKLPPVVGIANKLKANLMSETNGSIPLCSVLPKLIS

GRK5 (human) = GRK5 (human) (UniProt P34947)
Sequence of GRK5 (human) (P34947 whole entry, looked up): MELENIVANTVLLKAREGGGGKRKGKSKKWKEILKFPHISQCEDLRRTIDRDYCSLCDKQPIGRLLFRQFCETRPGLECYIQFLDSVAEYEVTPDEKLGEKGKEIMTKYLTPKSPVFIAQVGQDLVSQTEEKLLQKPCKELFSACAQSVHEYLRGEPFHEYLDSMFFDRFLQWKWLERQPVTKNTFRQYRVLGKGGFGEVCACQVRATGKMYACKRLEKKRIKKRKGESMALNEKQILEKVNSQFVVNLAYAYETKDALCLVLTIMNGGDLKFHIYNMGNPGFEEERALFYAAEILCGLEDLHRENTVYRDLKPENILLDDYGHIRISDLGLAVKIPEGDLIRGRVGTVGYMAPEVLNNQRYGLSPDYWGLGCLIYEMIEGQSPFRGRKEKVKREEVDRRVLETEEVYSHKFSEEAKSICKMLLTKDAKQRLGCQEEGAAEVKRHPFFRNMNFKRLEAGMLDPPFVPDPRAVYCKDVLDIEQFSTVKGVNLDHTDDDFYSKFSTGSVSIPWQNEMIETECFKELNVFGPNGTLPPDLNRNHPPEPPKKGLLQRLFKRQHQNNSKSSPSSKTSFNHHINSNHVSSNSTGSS

EGFR (human) = EGFR (human) (UniProt P00533)
MAP4K2 (human) = MAP4K2 (human) (UniProt Q12851)
Sequence of MAP4K2 (human) (Q12851 whole entry, looked up): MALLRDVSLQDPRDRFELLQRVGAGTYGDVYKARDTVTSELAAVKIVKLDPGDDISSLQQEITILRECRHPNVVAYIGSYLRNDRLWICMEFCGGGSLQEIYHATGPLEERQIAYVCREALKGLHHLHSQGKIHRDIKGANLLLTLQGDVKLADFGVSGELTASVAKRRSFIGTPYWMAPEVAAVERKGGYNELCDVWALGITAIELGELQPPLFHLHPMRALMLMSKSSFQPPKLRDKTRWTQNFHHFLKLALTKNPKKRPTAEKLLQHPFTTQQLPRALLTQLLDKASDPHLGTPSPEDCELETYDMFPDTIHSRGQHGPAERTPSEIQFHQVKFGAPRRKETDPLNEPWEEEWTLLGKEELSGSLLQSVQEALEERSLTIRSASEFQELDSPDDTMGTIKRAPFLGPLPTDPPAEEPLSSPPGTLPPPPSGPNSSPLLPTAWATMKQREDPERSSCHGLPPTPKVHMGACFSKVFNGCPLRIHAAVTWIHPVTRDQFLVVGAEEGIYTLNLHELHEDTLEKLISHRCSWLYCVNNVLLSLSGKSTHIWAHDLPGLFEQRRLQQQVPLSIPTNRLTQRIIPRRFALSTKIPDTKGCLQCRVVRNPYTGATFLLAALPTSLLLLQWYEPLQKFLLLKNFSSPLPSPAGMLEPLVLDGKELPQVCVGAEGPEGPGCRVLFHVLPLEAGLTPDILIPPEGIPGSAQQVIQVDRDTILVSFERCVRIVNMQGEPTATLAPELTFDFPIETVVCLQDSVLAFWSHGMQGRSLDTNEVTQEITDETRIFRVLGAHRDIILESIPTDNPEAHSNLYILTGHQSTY

DDR2 (human) = DDR2 (human) (UniProt Q16832)
PRKCZ (human) = PRKCZ (human) (UniProt Q05513)
MARK2 (human) = MARK2 (human) (UniProt Q7KZI7)
GRK7 (human) = GRK7 (human) (UniProt Q8WTQ7)
TXK (human) = TXK (human) (UniProt P42681)
EPHA1 (human) = EPHA1 (human) (UniProt P21709)
Sequence of EPHA1 (human) (P21709 whole entry, looked up): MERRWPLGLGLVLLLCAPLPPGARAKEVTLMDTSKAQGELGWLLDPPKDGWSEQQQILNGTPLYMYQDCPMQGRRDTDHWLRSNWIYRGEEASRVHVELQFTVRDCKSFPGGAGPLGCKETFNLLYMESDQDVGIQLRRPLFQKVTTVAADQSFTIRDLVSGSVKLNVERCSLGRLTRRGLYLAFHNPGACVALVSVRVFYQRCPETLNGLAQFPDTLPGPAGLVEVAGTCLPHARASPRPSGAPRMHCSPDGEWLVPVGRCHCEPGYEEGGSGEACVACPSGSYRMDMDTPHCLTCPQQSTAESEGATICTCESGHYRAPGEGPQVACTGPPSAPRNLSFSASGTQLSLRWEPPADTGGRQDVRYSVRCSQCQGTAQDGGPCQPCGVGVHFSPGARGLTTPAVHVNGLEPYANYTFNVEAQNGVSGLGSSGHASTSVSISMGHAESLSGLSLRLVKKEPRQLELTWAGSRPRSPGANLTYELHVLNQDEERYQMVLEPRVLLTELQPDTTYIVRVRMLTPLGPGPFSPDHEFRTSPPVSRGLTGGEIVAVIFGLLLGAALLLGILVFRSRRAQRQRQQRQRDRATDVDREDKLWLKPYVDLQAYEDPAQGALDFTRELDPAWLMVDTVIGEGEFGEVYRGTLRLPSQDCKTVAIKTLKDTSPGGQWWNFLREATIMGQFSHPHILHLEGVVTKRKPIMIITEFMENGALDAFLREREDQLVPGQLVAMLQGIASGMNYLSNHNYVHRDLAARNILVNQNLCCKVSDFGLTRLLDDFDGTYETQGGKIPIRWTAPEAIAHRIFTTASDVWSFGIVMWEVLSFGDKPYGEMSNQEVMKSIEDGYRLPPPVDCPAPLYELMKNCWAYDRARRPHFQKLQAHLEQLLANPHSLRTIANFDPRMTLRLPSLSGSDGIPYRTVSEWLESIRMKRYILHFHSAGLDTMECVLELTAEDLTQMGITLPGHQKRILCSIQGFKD

`N#C/C(=C(/N)Sc1ccc(N)cc1)c1ccccc1C(F)(F)F` showed a residual activity (NEK2 (human)) of 94.9%, a residual activity (STK39 (human)) of 94.6% and a residual activity (MAP3K5 (human)) of 108%. The residual activity (PRKX (human)) was 98.9%, the residual activity (CDK1 CCNB1 (human)) was 105% and the residual activity (FRK (human)) was 102%. For the same compound, the residual activity (MAP2K1 (human)) was 97.9%, the residual activity (SRPK3 (human)) was 96.3% and the residual activity (BRSK1 (human)) was 91.2%. It also gave a residual activity (CHEK2 (human)) of 97.7%, a residual activity (STK33 (human)) of 92.2% and a residual activity (BMX (human)) of 99.7%. The residual activity (PRKCB2 (human)) was 103%, the residual activity (DYRK2 (human)) was 96.6% and the residual activity (ADRBK1 (human)) was 114%. It also gave a residual activity (VRK1 (human)) of 100%, a residual activity (PHKG1 (human)) of 95.8% and a residual activity (EPHA7 (human)) of 105%. It also gave a residual activity (LTK (human)) of 100%, a residual activity (AXL (human)) of 119% and a residual activity (BTK (human)) of 93.5%. It also gave a residual activity (CSNK1G2 (human)) of 96.4%, a residual activity (CAMKK1 (human)) of 117% and a residual activity (MYO3B (human)) of 98.3%. The residual activity (SRPK2 (human)) was 99.5%, the residual activity (INSRR (human)) was 88.1% and the residual activity (DAPK3 (human)) was 102%. The residual activity (DYRK4 (human)) was 92.4%, the residual activity (PRKACG (human)) was 101% and the residual activity (PRKCD (human)) was 97.5%. It also gave a residual activity (TEK (human)) of 104%, a residual activity (MAP3K14 (human)) of 111% and a residual activity (DYRK3 (human)) of 105%. The residual activity (GRK5 (human)) was 102%, the residual activity (EGFR (human)) was 97.3% and the residual activity (MAP4K2 (human)) was 85.7%. It also gave a residual activity (DDR2 (human)) of 102%, a residual activity (PRKCZ (human)) of 106% and a residual activity (MARK2 (human)) of 124%. For the same compound, the residual activity (GRK7 (human)) was 113%, the residual activity (TXK (human)) was 98.7% and the residual activity (EPHA1 (human)) was 100%.

For `c1ccc(-c2n[nH]cc2-c2ccnc3ccccc23)nc1`, the residual activity (NEK2 (human)) was 97%, the residual activity (STK39 (human)) was 88.7% and the residual activity (MAP3K5 (human)) was 105%. The residual activity (PRKX (human)) was 102%, the residual activity (CDK1 CCNB1 (human)) was 106% and the residual activity (FRK (human)) was 92.8%. It also gave a residual activity (MAP2K1 (human)) of 93.7%, a residual activity (SRPK3 (human)) of 88.9% and a residual activity (BRSK1 (human)) of 99%. For the same compound, the residual activity (CHEK2 (human)) was 96.6%, the residual activity (STK33 (human)) was 92.9% and the residual activity (BMX (human)) was 89.2%. For the same compound, the residual activity (PRKCB2 (human)) was 92.1%, the residual activity (DYRK2 (human)) was 113% and the residual activity (ADRBK1 (human)) was 101%. The residual activity (VRK1 (human)) was 92.6%, the residual activity (PHKG1 (human)) was 94.2% and the residual activity (EPHA7 (human)) was 91.4%. It also gave a residual activity (LTK (human)) of 92.8%, a residual activity (AXL (human)) of 101% and a residual activity (BTK (human)) of 104%. It also gave a residual activity (CSNK1G2 (human)) of 103%, a residual activity (CAMKK1 (human)) of 109% and a residual activity (MYO3B (human)) of 91.7%. For the same compound, the residual activity (SRPK2 (human)) was 97.2%, the residual activity (INSRR (human)) was 101% and the residual activity (DAPK3 (human)) was 101%. The residual activity (DYRK4 (human)) was 104%, the residual activity (PRKACG (human)) was 92.9% and the residual activity (PRKCD (human)) was 96.6%. The residual activity (TEK (human)) was 98.8%, the residual activity (MAP3K14 (human)) was 116% and the residual activity (DYRK3 (human)) was 104%. The residual activity (GRK5 (human)) was 109%, the residual activity (EGFR (human)) was 81.8% and the residual activity (MAP4K2 (human)) was 103%. It also gave a residual activity (DDR2 (human)) of 95.1%, a residual activity (PRKCZ (human)) of 115% and a residual activity (MARK2 (human)) of 102%. The residual activity (GRK7 (human)) was 102%, the residual activity (TXK (human)) was 89.1% and the residual activity (EPHA1 (human)) was 97.7%.

`CCN(CC)CCNC(=O)c1c(C)[nH]c(/C=C2\C(=O)Nc3ccc(Cl)cc32)c1C` was tested, and the residual activity (NEK2 (human)) was 77.2%, the residual activity (STK39 (human)) was 81.9% and the residual activity (MAP3K5 (human)) was 98.1%. It also gave a residual activity (PRKX (human)) of 83.9%, a residual activity (CDK1 CCNB1 (human)) of 109% and a residual activity (FRK (human)) of 59.3%. It also gave a residual activity (MAP2K1 (human)) of 33.1%, a residual activity (SRPK3 (human)) of 92.8% and a residual activity (BRSK1 (human)) of 36.5%. The residual activity (CHEK2 (human)) was 6.42%, the residual activity (STK33 (human)) was 20.6% and the residual activity (BMX (human)) was 99.3%. For the same compound, the residual activity (PRKCB2 (human)) was 110%, the residual activity (DYRK2 (human)) was 82.7% and the residual activity (ADRBK1 (human)) was 104%. The residual activity (VRK1 (human)) was 90.7%, the residual activity (PHKG1 (human)) was 3.19% and the residual activity (EPHA7 (human)) was 67.1%. For the same compound, the residual activity (LTK (human)) was 11.6%, the residual activity (AXL (human)) was 25.2% and the residual activity (BTK (human)) was 58.3%. It also gave a residual activity (CSNK1G2 (human)) of 45.2%, a residual activity (CAMKK1 (human)) of 47.7% and a residual activity (MYO3B (human)) of 41.3%. For the same compound, the residual activity (SRPK2 (human)) was 93.7%, the residual activity (INSRR (human)) was 4.33% and the residual activity (DAPK3 (human)) was 54.3%. For the same compound, the residual activity (DYRK4 (human)) was 97.9%, the residual activity (PRKACG (human)) was 101% and the residual activity (PRKCD (human)) was 90.4%. The residual activity (TEK (human)) was 98.2%, the residual activity (MAP3K14 (human)) was 118% and the residual activity (DYRK3 (human)) was 81.8%. It also gave a residual activity (GRK5 (human)) of 82.7%, a residual activity (EGFR (human)) of 97% and a residual activity (MAP4K2 (human)) of 8.07%. For the same compound, the residual activity (DDR2 (human)) was 104%, the residual activity (PRKCZ (human)) was 104% and the residual activity (MARK2 (human)) was 9.74%. It also gave a residual activity (GRK7 (human)) of 62.2%, a residual activity (TXK (human)) of 79.5% and a residual activity (EPHA1 (human)) of 89.4%.

For `O=C1NC(=O)C(c2cn(CCCn3ccnc3)c3ccccc23)=C1Nc1ccccc1`, the residual activity (NEK2 (human)) was 106%, the residual activity (STK39 (human)) was 99.2% and the residual activity (MAP3K5 (human)) was 105%. For the same compound, the residual activity (PRKX (human)) was 95.5%, the residual activity (CDK1 CCNB1 (human)) was 84.9% and the residual activity (FRK (human)) was 107%. The residual activity (MAP2K1 (human)) was 90.6%, the residual activity (SRPK3 (human)) was 92.5% and the residual activity (BRSK1 (human)) was 95.3%. It also gave a residual activity (CHEK2 (human)) of 88.3%, a residual activity (STK33 (human)) of 82.9% and a residual activity (BMX (human)) of 90%. It also gave a residual activity (PRKCB2 (human)) of 4.29%, a residual activity (DYRK2 (human)) of 97.3% and a residual activity (ADRBK1 (human)) of 97.1%. For the same compound, the residual activity (VRK1 (human)) was 98.7%, the residual activity (PHKG1 (human)) was 64.6% and the residual activity (EPHA7 (human)) was 89.5%. For the same compound, the residual activity (LTK (human)) was 93.4%, the residual activity (AXL (human)) was 98.8% and the residual activity (BTK (human)) was 105%. For the same compound, the residual activity (CSNK1G2 (human)) was 95.4%, the residual activity (CAMKK1 (human)) was 96.3% and the residual activity (MYO3B (human)) was 36%. It also gave a residual activity (SRPK2 (human)) of 96.2%, a residual activity (INSRR (human)) of 101% and a residual activity (DAPK3 (human)) of 104%. The residual activity (DYRK4 (human)) was 89%, the residual activity (PRKACG (human)) was 117% and the residual activity (PRKCD (human)) was 19.3%. The residual activity (TEK (human)) was 92.3%, the residual activity (MAP3K14 (human)) was 96.1% and the residual activity (DYRK3 (human)) was 103%. For the same compound, the residual activity (GRK5 (human)) was 90.9%, the residual activity (EGFR (human)) was 95.1% and the residual activity (MAP4K2 (human)) was 85.7%. The residual activity (DDR2 (human)) was 95.6%, the residual activity (PRKCZ (human)) was 99.6% and the residual activity (MARK2 (human)) was 97.1%. The residual activity (GRK7 (human)) was 86.3%, the residual activity (TXK (human)) was 95.3% and the residual activity (EPHA1 (human)) was 101%.
